Assays:
FXa = FXa (Homo sapiens, UniProt P00742); test: In vitro chromogenic factor Xa inhibitory assay; format: biochemical
thrombin = details: cited from earlier work; for IC50: thrombin inhibitors

FXa, sequence (P00742 235-488 limits assumed): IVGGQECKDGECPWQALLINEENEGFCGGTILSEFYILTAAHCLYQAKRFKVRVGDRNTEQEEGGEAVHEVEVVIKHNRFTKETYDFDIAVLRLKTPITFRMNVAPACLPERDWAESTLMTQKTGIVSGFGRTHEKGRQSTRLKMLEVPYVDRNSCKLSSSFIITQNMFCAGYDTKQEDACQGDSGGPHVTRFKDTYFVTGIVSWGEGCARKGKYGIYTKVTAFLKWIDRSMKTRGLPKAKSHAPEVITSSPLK
FXa, sequence (P00742 41-179 partner limits assumed): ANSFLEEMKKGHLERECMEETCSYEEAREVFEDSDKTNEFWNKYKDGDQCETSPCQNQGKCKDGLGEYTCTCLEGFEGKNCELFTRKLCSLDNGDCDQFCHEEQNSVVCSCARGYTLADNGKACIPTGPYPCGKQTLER

| FXa inhibitory activity (in words) (FXa) | IC50 (FXa) [µM] | Compound | IC50 (thrombin) [µM] | thrombin inhibitory effects (in words) (thrombin) |
| --- | --- | --- | --- | --- |
| Moderate activity | 67.1 ± 1.75 | O=c1cc(-c2ccc(O)cc2)oc2cc(O)ccc12 [Compound 1, 7,4′-dihydroxyflavone] | – | – |
| – | 17.7 ± 0.28 | COc1ccc(-c2coc3cc(O)ccc3c2=O)cc1 [Compound 2, 7-hydroxy-4′-methoxyisoflavone] | – | – |
| Moderate activity | 35.3 ± 1.03 | CC1(C)C=Cc2c(ccc3c2OC[C@@H](c2ccc(O)cc2O)C3)O1 [Compound 3, 3-R-glabridin] | – | – |
| Moderate activity | 74.4 ± 1.29 | O=C(/C=C/c1ccc(O)cc1)c1ccc(O)cc1O [Compound 4, isoliquiritigenin] | 17.9 | – |
| – | 5.15 ± 0.09 | O=C1C[C@@H](c2ccc(O[C@@H]3O[C@H](CO)[C@@H](O)[C@H](O)[C@H]3O)cc2)Oc2cc(O)ccc21 [Compound 5, liquiritin] | – | negligible |
| – | 10.4 ± 0.52 | COc1c(/C=C/C(=O)c2ccc(O)c(O)c2)ccc(O)c1O [Compound 7, 3,3′,4,4′-tetrahydroxy-2-methoxychalcone] | – | – |
| very weak effects | – | isoliquiritigenin-4-O-β-D-apiosylglucoside [Compound 10] | 37.9 | – |
| very weak effects | – | liquiritigenin-4′-O-β-D-apiosyl(1-2)-β-D-glucoside [Compound 8] | – | – |
